In test [1] the test system is HeLa cancer cells. Kind of test: Morphological study under normal inverted microscope, HeLa. In kind it is cell-based, human. The settings on record: treated at IC50 value, 24, 48 and 72 hours. The method, then:
(§1) Treated cancer cells of HeLa and Caov-3 in 96-well plates were observed under normal inverted microscope following 24, 48 and 72 hours of incubation. Apoptotic features of treated cells were examined and compared concurrently to untreated cells. The cells were observed under inverted microscope at magnification 20×10.

The subject of a further test is Caov-3 cancer cells. The test is described as follows: Morphological study under normal inverted microscope, Caov-3. In kind it is cell-based, human. The settings on record: Caov-3, treated at IC50 value, 24, 48 and 72 hours. The protocol:
as §1

The test system of test [2] is HeLa cancer cells. The test is described as follows: Confocal microscopy with AO/PI stain, HeLa. In kind it is cell-based, human. The settings on record: 48 hours, laser scanning confocal microscopy. The method, then:
The plates were removed from the incubator after 24 and 48 hours of incubation period. The medium containing cells was transferred into labeled Eppendorf tubes (of each treated samples) placed in ice. The remaining cells in the wells were trypsinised until all cells were detached from the surfaces of each well. The medium containing cells in the Eppendorf tube was then transferred into the well of the tissue culture plate (of similar sample) to neutralise the trypsin. The medium in the wells was later transferred back into the Eppendorf tube (of similar sample) and centrifuged at 3000 rpm for 5 minutes, 4° C. Supernatant was discarded and 1 mL of 70% of cold alcohol was added. The pellet was re-suspended and placed in ice for 15 minutes for fixation. The samples were then centrifuged again at 3000 rpm for 5 minutes, 4° C. The supernatants containing the alcohol were discarded. The pellet was then re-suspended in 1 mL of phosphate buffer saline (PBS) and placed in ice for 10 minutes. The samples were centrifuged again, re-suspended in 1 mL of PBS and placed in ice for 10 minutes. This procedure was repeated again before discarding the supernatant.
The pellet containing cells was re-suspended with 15 μl of 10 μg/mL AO/PI mixture. Approximately 10 μl of the cell suspension was placed on a glass slide, and anti-fading agents were added onto the cells. […]

For test [3], the system named is ovarian carcinoma cells (Caov-3 cells). The test is described as follows: TUNEL assay apoptosis, Caov-3. The settings on record: Caov-3, IC50 values, 24 and 48 hours, P<0.05 or P<0.01 vs control. In kind it is cell-based, human. The source says:
Apoptotic cells were quantified manually after TUNEL Assay. Data shown are mean±SD from duplicate samples. A single dagger denotes a P of <0.05 when compared with control; a double dagger denotes a P of <0.01 when compared with control as performed by One-Way ANOVA;

In test [4] the test system is cervical cancer cells (HeLa cells). Kind of test: TUNEL assay apoptosis, HeLa. In kind it is cell-based, human. The settings on record: IC50 values, 24 and 48 hours, P<0.01 vs control. The text has this: Apoptosis was quantified manually after TUNEL Assay. Data shown are mean±SD from duplicate samples. A double dagger denotes a P of <0.01 when compared with control as performed by One-Way ANOVA;

Test [5] deals with induced cervical cancer in female balb/c mice. Kind of test: DES-induced cervical cancer in female balb/c mice, cervical histology (H&E). It counts as in vivo. The settings on record: intra peritoneal, 4 dosages on alternate days, normal saline group CIN III. The method, then:
1 male mouse was cohabitate with 3 female mice for 48 hours prior to experiment to stimulate the ovulation of the female mice. After 48 hours, 1 male mouse was cohabitate with 1 female mouse. The next morning, the female mice were checked for a vaginal plug. The detection of vaginal plug at the vagina of the female mice were considered as the first day of pregnancy and gestation day (G=0). Once the female mouse was pregnant the corresponding male mouse was separated from the cage. Only one pregnant female mouse was placed in each cage to reduce the stress among the mice and also to reduce the chances of cannibalization of offspring by the mothers. The pregnant mice were given subcutaneous injection of 67 μg/kg body weight diethylstilbestrol (DES) dissolved in sesame oil (refer to appendix for DES preparation) from gestation day (13 to 18). Since the reproductive tract is developing during this time, so giving the DES injection too early may cause stillbirth. The mice gave birth approximately at gestation day (19 to 22). The offspring were weaned at 22 days of age. 1 female offspring was subjected for the confirmation of cervical dysplasia at 41 days of age. The other offspring were subjected for the treatment with cisplatin, zerumbone and normal saline.
All female offspring exposed to DES in uteri were pooled together and were divided into 4 groups where each group consists of 3 mice. […]

In the next test the test system is serum IL-6. Kind of test: Serum IL-6 ELISA in mice with induced cervical cancer. It counts as in vivo. The settings on record: for Serum IL-6 levels vs normal saline treated mice: mice with induced cervical cancer, P<0.01 One-Way ANOVA. The method, then:
All female offspring exposed to DES in uteri were pooled together and were divided into 4 groups where each group consists of 3 mice. The 5th group consists of 3 mice which was non-exposed to DES. The mice were given treatment starting from 46 days of age to 52 days of age. The treatment was given every alternate day (day 46, 48, 50, 52) which consist of 4 dosages. The treatment was given through intra peritoneal injection. The group 1 mice were treated with 0.9% of Normal Saline and this group acts as a positive control group. The group 2 mice were given 8 mg/kg of Zerumbone while the group 3 mice were given 16 mg/kg of Zerumbone. […] Finally no treatment was given to the mice in group 5 as they act as a negative control (normal mice) for the studies. Following treatment, all the mice were sacrificed at 54 days of age. The blood sample was collected through heart punctured method into a plain tube and was centrifuged at 3000 rpm for 15 minutes. The supernatant (serum) was collected into an eppendorf tube and was immediately stored in ice (0° C.—temporary storage). Once serum from all the samples was collected, the serum was stored at −20° C. Then the mice were dissected. The reproductive organ of the mice were collected and washed with 0.9% normal saline. The washed organ was soaked in 10% formalin and stored at room temperature.
The IL-6 serum levels in normal mice were used as negative control.
On the technique in general: In an ELISA, binding on a coated surface is turned into a signal by an enzyme label.

Test [6] concerns human cervical cancer cells, HeLa. The test is described as follows: Micro Tetrazolium (MTT) cytotoxicity assay on HeLa.
Method: HeLa and Caov-3 cell lines were maintained in RPMI 1640 and DMEM high glucose respectively, supplemented with 10% FCS, 1% penicillin and 1% streptomycin. Cells were allowed to proliferate as monolayer cultures in 25 cm^2 and 75 cm^2 tissues culture flasks, in a humidified atmosphere containing 5% CO2 at 37° C.
A haemacytometer was used to determine the concentration of cells in the flask. Confluent cells were trypsinised in order to detach cells from surface of the flask. 10 mL of fresh medium was added into the flask and the cells were suspended thoroughly. 10 μl of medium from the flask was then transferred into a haemacytometer with cover slip. The counting was done under an inverted microscope and facilitated by manual counter usage. The cell density (for an example 1×10^5 cells/mL) was calculated. Using a multi-channel pipette, 100 μl of cell culture solution was transferred into each well of a 96-well microtiter plate. For a 6 well microtiter plate, 2 ml of the cell culture solution was pipetted instead. The plate was incubated overnight at 37° C. in 5% CO2.
The concentrations of zerumbone in each experiment varied according to the optimization of the experiment conducted. The controls or untreated cells received only medium without any treatment of either compounds. Treated cells were then incubated at 37° C. in 5% CO2.
This assay is based on the metabolic reduction of soluble MTT by mitochondrial enzyme activity of viable cancer cells, into an insoluble coloured formazan product, which can be measured spectrophotometrically after dissolution in dimethyl sulfoxide (DMSO) (Carmichale et al., 1987). The MTT assay was conducted according to the methods of Kumi-Diaka et at (1998) with minor modifications. The concentration of MTT solution used was 5 mg/mL. The MTT solution was prepared by dissolving 250 mg of MTT powder in 50 mL of phosphate buffer saline (PBS). A 0.2 micron syringe filter was used to filter the dissolved MTT. The filtered MTT solution was transferred into a sterile 50 mL centrifuge tube and covered with aluminum foil. This solution was stored in 4° C. and is ready to be used. The MTT assay was carried out as follows:
96-well microtiter plates containing cell culture solution were removed from the incubator after 72 hours incubation. 20 μl of 5 mg/mL MTT solution was added into each well including control wells. The plates were then wrapped with aluminium foil and incubated further for 4 hours at 37° C. in 5% CO2. After incubation, excess MTT reagent was aspirated and 100 μl of DMSO was added to dissolve the remaining purple colour formazan crystals. The plates were gently mixed on a plate shaker for approximately 4 minutes. The absorbance of the formazan solution was determined at 450 nm using a microplate reader.
The next test relates to HeLa cells. Kind of test: Cell cycle study by flow cytometry, HeLa. The settings on record: 24 hours, zerumbone 0 to 45 μM. In kind it is cell-based, human. The method, then: Cells were plated in 25 cm^2 tissue culture flasks at concentrations of 0.5×10^5 cells/mL. After an overnight incubation, the cells were cultured in the presence of zerumbone at concentrations as indicated above for 24 hours. Cells were harvested using trypsin-EDTA before centrifuging at 3000 rpm for 5 minutes. The cells pellet was then re-suspended in 2 mL of phosphate buffer saline (PBS). The re-suspended cells were centrifuged at 3000 rpm for 5 minutes and the resulting cells pellet was re-suspended again in 1 mL of cold PBS. The cells were fixed by the addition of 4 mL of cold absolute ethanol (kept in −20° C. prior to use). The fixed cells were stored in −20° C. overnight before resuming the staining procedure.
Background: In flow cytometry, cells or beads pass a laser one at a time.

In another test the test system is Coa3 cancer cells. Kind of test: Cell cycle study by flow cytometry, Caov-3. The settings on record: Coa3 (Caov-3) cancer cells. It counts as cell-based, human.

pIC50: −log10 of the molar value. Like-named read-outs stand apart in the source and are kept apart here.

On to `N.N.[Cl][Pt][Cl]` [cisplatin, reference compound], for which the “Morphological changes / cell growth vs untreated control” value with HeLa cancer cells [1] and with Caov-3 cancer cells was “Prominent growth retardation” each time. Also, the “Morphological changes after AO/PI staining” value in the test with HeLa cancer cells [2] was “blebbing of the cell membrane, nuclear condensation with margination and nuclear damage”. The “Apoptosis, apoptotic cells quantified after TUNEL Assay” value in test [3] is reported as “induced apoptosis”. For the same compound, the “Apoptosis quantified after TUNEL Assay” value in [4] is reported as “induced apoptosis”. The “Cervical tissue dysplasia grade (CIN)” value in test [5] (10 mg/kg cisplatin) is “mild dysplastic changes (CIN I)”. For the same compound, the “Serum IL-6 levels vs normal mice (negative control)” value with serum IL-6 (10 mg/kg cisplatin) was “almost near to the serum level of normal mice”. Besides, the “Serum IL-6 levels vs normal saline treated mice” value in the test with serum IL-6 is on record as “lower”. Besides, in [6] (MTT, 72-hours post-treatment), the “IC50 value, growth proliferation of HeLa” value worked out at 1.6 µg/mL. In addition, the pIC50 in [6] (read-out: IC50 value (±S.E.M), growth proliferation of HeLa, MTT, 72-hours post-treatment) is 5.12.

Take `C/C1=C\CC(C)(C)/C=C/C(=O)/C(C)=C/CC1` [zerumbone]: the “Morphological changes / cell growth vs untreated control” value in the test on HeLa cancer cells [1] and with Caov-3 cancer cells was “Prominent growth retardation” each time. Also, in the test with HeLa cancer cells [2], the “Morphological changes after AO/PI staining” value is “blebbing of the cell membrane, nuclear condensation with margination and nuclear damage”. Further, the “Cell cycle progression (G2/M, G1, S phase)” value in the test with HeLa cells was “increase in the number of HeLa cancer cells and Coa3 cancer cells in the G2/M phase and a decrease in the G1 phase and S phase”; in the test on Coa3 cancer cells, “increase in the number of HeLa cancer cells and Coa3 cancer cells in the G2/M phase and a decrease in the G1 phase and S phase”. For the same compound, the “Apoptosis, apoptotic cells quantified after TUNEL Assay” value in test [3] is “induced apoptosis”. Moreover, the “Apoptosis quantified after TUNEL Assay” value in [4] is listed as “induced apoptosis”. Also, the “Cervical tissue dysplasia grade (CIN)” value in [5] (16 mg/kg zerumbone) is “mild dysplastic changes (CIN I)”. Besides, the “Serum IL-6 levels vs normal mice (negative control)” value with serum IL-6 (16 mg/kg zerumbone) is reported as “almost near to the serum level of normal mice”. In addition, the “Serum IL-6 levels vs normal saline treated mice” value in the test on serum IL-6 is listed as “lower”. Also, the pIC50 in [6] (Homo sapiens, 72 h, read-out: IC50 value (±S.E.M), growth proliferation of HeLa) was 4.95. Moreover, in test [6] (Homo sapiens, 72 h, read-out: IC50 value, growth proliferation of HeLa), the IC50 is 2.5 µg/mL.

For the origin of these results see patent US20090239953A1, “USE OF AN ANTI-CANCER COMPOUND” (priority 2006, published 2009).
